Source: PubChem BioAssay AID248 (DTP/NCI, 2004)
Where “and” joins values, the source holds several entries; their conditions need not be identical. Identical values can stand only once. Inconclusive results and toxic doses are left out. Rule as the data show it: active = T/C of 150% or more; inactive = T/C below 125%.

Tested on: L1210 leukemia ip in BDF1 mice, survival T/C
Test: NCI In Vivo Anticancer Drug Screen. Data for tumor model L1210 Leukemia (intraperitoneal) in B6D2F1 (BDF1) mice
Settings: higher = longer survival
Method in brief: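 Tumor cells were implanted, animals were treated, and survival was followed. The result divides the treated measurement by the vehicle-control measurement.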

[1] = endpoint: mean survival time, dose: 100.0 mg/kg/injection, schedule: Q04DX003 (ip), vehicle: saline with Tween-80
[2] = endpoint: mean survival time, dose: 200.0 mg/kg/injection, schedule: Q04DX003 (ip), vehicle: saline with Tween-80
[3] = endpoint: mean survival time, dose: 400.0 mg/kg/injection, schedule: Q04DX003 (ip), vehicle: saline with Tween-80
[4] = endpoint: mean survival time, dose: 100.0 mg/kg/injection, schedule: Q04DX003 (ip), vehicle: Klucel (hydroxypropylcellulose) (HPC)
[5] = endpoint: mean survival time, dose: 200.0 mg/kg/injection, schedule: Q04DX003 (ip), vehicle: Klucel (hydroxypropylcellulose) (HPC)
[6] = endpoint: mean survival time, dose: 400.0 mg/kg/injection, schedule: Q04DX003 (ip), vehicle: Klucel (hydroxypropylcellulose) (HPC)
[7] = endpoint: mean survival time, dose: 12.5 mg/kg/injection, schedule: Q01DX009 (ip), vehicle: saline
[8] = endpoint: mean survival time, dose: 25.0 mg/kg/injection, schedule: Q01DX009 (ip), vehicle: saline
[9] = endpoint: mean survival time, dose: 50.0 mg/kg/injection, schedule: Q01DX009 (ip), vehicle: saline
[10] = endpoint: mean survival time, dose: 100.0 mg/kg/injection, schedule: Q01DX009 (ip), vehicle: Klucel (hydroxypropylcellulose) (HPC)
[11] = endpoint: mean survival time, dose: 200.0 mg/kg/injection, schedule: Q01DX009 (ip), vehicle: Klucel (hydroxypropylcellulose) (HPC)
[12] = endpoint: mean survival time, dose: 100.0 mg/kg/injection, schedule: Q01DX009 (ip), vehicle: saline with Tween-80
[13] = endpoint: mean survival time, dose: 200.0 mg/kg/injection, schedule: Q01DX009 (ip), vehicle: saline with Tween-80
[14] = endpoint: mean survival time, dose: 400.0 mg/kg/injection, schedule: Q01DX009 (ip), vehicle: Klucel (hydroxypropylcellulose) (HPC)

Measured: T/C

CCC(C)(N)C(=O)O (stereo not drawn)
inactive: endpoint: mean survival time, dose: 100.0 mg/kg/injection, schedule: Q01DX001 (ip), vehicle: saline 102 % of control | endpoint: mean survival time, dose: 200.0 mg/kg/injection, schedule: Q01DX001 (ip), vehicle: saline 106 % of control | endpoint: mean survival time, dose: 400.0 mg/kg/injection, schedule: Q01DX001 (ip), vehicle: saline 102 % of control

CC(C)CNC(=O)Nc1ccccc1C(F)(F)F
inactive: [1] 95 % of control | [2] 97 % of control | [3] 97 % of control

CCOC(=O)c1cnc(SC)nc1Nc1cccc(OC)c1
inactive: [4] 108 % of control | [5] 110 % of control | [6] 101 % of control

C[C@H]1C(=O)O[C@@H]2CCN3CC=C(COC(=O)[C@](C)(O)[C@@]1(C)O)[C@H]23
inactive: endpoint: mean survival time, dose: 3.13 mg/kg/injection, schedule: Q01DX010 (ip), vehicle: saline 93 % of control and 94 % of control | endpoint: mean survival time, dose: 6.25 mg/kg/injection, schedule: Q01DX009 (ip), vehicle: saline 95 % of control and 104 % of control | endpoint: mean survival time, dose: 6.25 mg/kg/injection, schedule: Q01DX010 (ip), vehicle: saline 96 % of control and 87 % of control | [7] 92 % of control and 104 % of control | endpoint: mean survival time, dose: 12.5 mg/kg/injection, schedule: Q01DX010 (ip), vehicle: saline 92 % of control and 93 % of control | endpoint: mean survival time, dose: 17.6 mg/kg/injection, schedule: Q01DX Z (ip), vehicle: methylcellulose (MC) 98 % of control | [8] 103 % of control and 104 % of control | endpoint: mean survival time, dose: 25.0 mg/kg/injection, schedule: Q01DX010 (ip), vehicle: saline 92 % of control and 94 % of control | endpoint: mean survival time, dose: 26.8 mg/kg/injection, schedule: Q01DX Z (ip), vehicle: methylcellulose (MC) 101 % of control | endpoint: mean survival time, dose: 40.0 mg/kg/injection, schedule: Q01DX Z (ip), vehicle: methylcellulose (MC) 101 % of control | [9] 105 % of control and 121 % of control | endpoint: mean survival time, dose: 60.0 mg/kg/injection, schedule: Q01DX Z (ip), vehicle: methylcellulose (MC) 95 % of control | endpoint: mean survival time, dose: 90.0 mg/kg/injection, schedule: Q01DX Z (ip), vehicle: methylcellulose (MC) 106 % of control | endpoint: mean survival time, dose: 135.0 mg/kg/injection, schedule: Q01DX Z (ip), vehicle: methylcellulose (MC) 111 % of control and 113 % of control | endpoint: mean survival time, dose: 193.0 mg/kg/injection, schedule: Q01DX Z (ip), vehicle: methylcellulose (MC) 108 % of control | endpoint: median survival time, dose: 6.25 mg/kg/injection, schedule: Q01DX009 (ip), vehicle: saline 95 % of control and 100 % of control | endpoint: median survival time, dose: 12.5 mg/kg/injection, schedule: Q01DX009 (ip), vehicle: saline 100 % of control | endpoint: median survival time, dose: 25.0 mg/kg/injection, schedule: Q01DX009 (ip), vehicle: saline 100 % of control | endpoint: median survival time, dose: 50.0 mg/kg/injection, schedule: Q01DX009 (ip), vehicle: saline 100 % of control and 110 % of control

COc1ccc(C(O)c2cc(-c3ccncc3)c(C(O)c3ccc(OC)cc3)nn2)cc1 (stereo not drawn)
inactive: endpoint: mean survival time, dose: 100.0 mg/kg/injection, schedule: Q04DX003 (ip), vehicle: gum acacia 94 % of control | endpoint: mean survival time, dose: 200.0 mg/kg/injection, schedule: Q04DX003 (ip), vehicle: gum acacia 96 % of control | endpoint: mean survival time, dose: 400.0 mg/kg/injection, schedule: Q04DX003 (ip), vehicle: gum acacia 88 % of control

O=C1OC2(CCNCC2)C(=O)N1c1ccc(F)cc1
inactive: endpoint: mean survival time, dose: 12.5 mg/kg/injection, schedule: Q01DX001 (ip), vehicle: carboxymethylcellulose (CMC) 104 % of control | endpoint: mean survival time, dose: 25.0 mg/kg/injection, schedule: Q01DX001 (ip), vehicle: carboxymethylcellulose (CMC) 101 % of control

CCCCC[C@H](O)/C=C/[C@H]1[C@H](O)CC(=O)[C@@H]1C/C=C\CCCC(=O)O
inactive: endpoint: mean survival time, dose: 0.37 mg/kg/injection, schedule: Q04DX002 (ip), vehicle: Klucel (hydroxypropylcellulose) (HPC) 100 % of control | endpoint: mean survival time, dose: 0.75 mg/kg/injection, schedule: Q04DX002 (ip), vehicle: Klucel (hydroxypropylcellulose) (HPC) 103 % of control | endpoint: mean survival time, dose: 1.5 mg/kg/injection, schedule: Q04DX002 (ip), vehicle: Klucel (hydroxypropylcellulose) (HPC) 111 % of control | endpoint: mean survival time, dose: 3.0 mg/kg/injection, schedule: Q04DX002 (ip), vehicle: Klucel (hydroxypropylcellulose) (HPC) 118 % of control | endpoint: mean survival time, dose: 6.0 mg/kg/injection, schedule: Q04DX002 (ip), vehicle: Klucel (hydroxypropylcellulose) (HPC) 96 % of control | endpoint: mean survival time, dose: 12.0 mg/kg/injection, schedule: Q04DX002 (ip), vehicle: Klucel (hydroxypropylcellulose) (HPC) 96 % of control | endpoint: mean survival time, dose: 24.0 mg/kg/injection, schedule: Q04DX002 (ip), vehicle: Klucel (hydroxypropylcellulose) (HPC) 100 % of control | endpoint: mean survival time, dose: 25.0 mg/kg/injection, schedule: Q04DX002 (ip), vehicle: saline with Tween-80 98 % of control | endpoint: mean survival time, dose: 50.0 mg/kg/injection, schedule: Q04DX002 (ip), vehicle: saline with Tween-80 98 % of control | endpoint: mean survival time, dose: 100.0 mg/kg/injection, schedule: Q04DX002 (ip), vehicle: saline with Tween-80 105 % of control | endpoint: mean survival time, dose: 200.0 mg/kg/injection, schedule: Q04DX002 (ip), vehicle: saline with Tween-80 102 % of control | endpoint: mean survival time, dose: 400.0 mg/kg/injection, schedule: Q04DX002 (ip), vehicle: saline with Tween-80 98 % of control

O=c1[nH]c2ccc(Cl)cc2c2nc3ccccc3n12
inactive: endpoint: mean survival time, dose: 50.0 mg/kg/injection, schedule: Q01DX009 (ip), vehicle: Klucel (hydroxypropylcellulose) (HPC) 107 % of control | [10] 101 % of control | [11] 92 % of control

CC12CCCCC1=CC(=O)CCC2 (stereo not drawn)
inactive: endpoint: mean survival time, dose: 50.0 mg/kg/injection, schedule: Q01DX009 (ip), vehicle: saline with Tween-80 98 % of control | [12] 98 % of control | [13] 98 % of control

COc1ccc(NC(=S)Nc2ccc(-c3ccc(NC(=S)Nc4ccc(OC)cc4)cc3)cc2)cc1
inactive: endpoint: mean survival time, dose: 100.0 mg/kg/injection, schedule: Q04DX002 (ip), vehicle: Klucel (hydroxypropylcellulose) (HPC) 87 % of control | endpoint: mean survival time, dose: 200.0 mg/kg/injection, schedule: Q04DX002 (ip), vehicle: Klucel (hydroxypropylcellulose) (HPC) 87 % of control

CCN(CC)CCSc1ncnc2nc[nH]c12
inactive: endpoint: mean survival time, dose: 75.0 mg/kg/injection, schedule: Q01DX001 (ip), vehicle: saline 102 % of control | endpoint: mean survival time, dose: 150.0 mg/kg/injection, schedule: Q01DX001 (ip), vehicle: saline 91 % of control | endpoint: mean survival time, dose: 300.0 mg/kg/injection, schedule: Q01DX001 (ip), vehicle: saline 104 % of control

CCOC(=O)CCC(NC(=O)c1ccc(N(C)S(=O)(=O)c2ccc(C)cc2)c2ccccc12)C(=O)OCC (stereo not drawn)
inactive: [12] 108 % of control | [1] 97 % of control | [13] 94 % of control | [2] 100 % of control | endpoint: mean survival time, dose: 400.0 mg/kg/injection, schedule: Q01DX009 (ip), vehicle: saline with Tween-80 92 % of control | [3] 100 % of control

COc1ccc(O)c(/C=N\Nc2ccccc2)c1
inactive: [10] 89 % of control | [4] 96 % of control | [11] 91 % of control | [5] 94 % of control | [14] 86 % of control | [6] 92 % of control

O=C(Nc1ccccc1O)c1ccc(Cl)c(Cl)c1
inactive: [10] 100 % of control | [11] 107 % of control | [14] 102 % of control

NC(CSSc1ccccc1)=NC1CCCCC1
inactive: endpoint: mean survival time, dose: 12.5 mg/kg/injection, schedule: Q04DX002 (ip), vehicle: other 98 % of control | endpoint: mean survival time, dose: 25.0 mg/kg/injection, schedule: Q04DX002 (ip), vehicle: other 109 % of control | endpoint: mean survival time, dose: 50.0 mg/kg/injection, schedule: Q04DX002 (ip), vehicle: other 91 % of control

O=C(Nc1cccc(F)c1)Nc1ccccc1C(F)(F)F
inactive: [10] 97 % of control | [11] 91 % of control | [14] 94 % of control

CC(C)c1ccc(NC(=S)NC(=O)c2ccccc2)cc1
inactive: endpoint: mean survival time, dose: 100.0 mg/kg/injection, schedule: Q04DX002 (ip), vehicle: gum acacia 103 % of control | endpoint: mean survival time, dose: 200.0 mg/kg/injection, schedule: Q04DX002 (ip), vehicle: gum acacia 100 % of control | endpoint: mean survival time, dose: 400.0 mg/kg/injection, schedule: Q04DX002 (ip), vehicle: gum acacia 92 % of control

O=COCC(O)COC=O
inactive: [7] 101 % of control | [8] 104 % of control | [9] 87 % of control | endpoint: mean survival time, dose: 100.0 mg/kg/injection, schedule: Q01DX009 (ip), vehicle: saline 101 % of control | endpoint: mean survival time, dose: 100.0 mg/kg/injection, schedule: Q04DX003 (ip), vehicle: saline 95 % of control | endpoint: mean survival time, dose: 200.0 mg/kg/injection, schedule: Q04DX003 (ip), vehicle: saline 90 % of control | endpoint: mean survival time, dose: 400.0 mg/kg/injection, schedule: Q04DX003 (ip), vehicle: saline 97 % of control

BrCCCC1CCCCC1
inactive: [10] 104 % of control | [4] 100 % of control | [11] 97 % of control | [5] 104 % of control | [14] 92 % of control | [6] 105 % of control
